Test results: PMC6747274, “Multifunctional Peptides from Spanish Dry-Cured Pork Ham: Endothelial Responses and Molecular Modeling Studies” (International Journal of Molecular Sciences, 2019)
Where no end group is shown, it is not given here.

Assays:
Assay type in all cases: cell-based, human
[1] = system: ICAM-1 surface expression, EA.hy926 cells; experiment: ICAM-1 surface expression by flow cytometry (MFI); settings: for ICAM-1 surface density (in words): 300 µM peptide + TNF-α vs TNF-α activated cells, all p < 0.05; for ICAM-1 MFI: preincubation with 300 µM peptide, then 100 ng/mL TNF-α, six independent experiments, mean ± SD, p vs TNF-α: BP1 0.03, BP2 0.009, BP3 0.09, BP4 0.04, control 71.36 ± 8.31
Protocol: (§1) EA.hy926 cells, the hybrid human umbilical vein endothelial cell line, were obtained from the American Type Culture Collection (ATCC® CRL2922™, Rockville, MD, USA). Cells were cultured in high glucose Dulbecco’s Modified Eagle’s Medium (DMEM), containing 10% heat-inactivated fetal bovine serum (FBS, Biowest, Riverside, CA, USA) and 50 U/mL of penicillin and 50 µg/mL streptomycin (Sigma Aldrich Chemical Co., Saint Louis, MO, USA). Cells were grown in 5% CO2 in a humidified air incubator at 37 °C. Subculture was performed when 90% confluence was reached.
(§2) EA.hy926 were seeded in six-well plates at 0.25 × 10^6 cells/well in DMEM supplemented with 5% FBS. Cells were treated with 300 µM of each peptide for 16 h. Then, 100 ng/mL TNF-α or 300 µM H2O2 were added for an additional 6 h or 24 h, respectively.
To measure adhesion molecule content in human endothelial cells by flow cytometry, the cell monolayer was detached and fixed before immunofluorescence labelling. The following antibodies were used per sample: 20 µL anti-ICAM-1/CD54-phycoerythrin (PE) (clone HA58, BD Biosciences, Franklin Lakes, NJ, USA) and 5 µL anti-VCAM-1/CD106-PerCP-Cy5.5 (clone 51–10C9; BD Biosciences, San Jose, CA, USA), according to the manufacturer’s protocol. Stained cells (10,000 events) were examined by flow cytometry (FACS Calibur, Becton Dickinson, Mountain View, CA, USA) in a simultaneous two-color analysis with FL2 (PE) and FL3 (PerCP-Cy5.5) channels. Markers were set according to the negative controls to quantify the percentage of positively stained cells. Mean Fluorescence Intensity (MFI) was calculated for each antigen (MFI of total stained cells-MFI of negative control cells).

[2] = system: VCAM-1 mRNA, EA.hy926 cells; experiment: VCAM-1 mRNA expression by RT-PCR in EA.hy926 cells; settings: 300 µM peptide 16 h, then 100 ng/mL TNF-α 6 h; p = 0.01 (BP2), 0.03 (BP3), 0.02 (BP4)
Protocol: as §1, §2
Total RNA was extracted from EA.hy926 cells using 300 µL Trisure™ (Bioline, Taunton, MA, USA) reagent and Direct-zol™ RNA MiniPrep (Zymo Research Irvine, Irvine, CA, USA) according to the manufacturer’s protocol. Total RNA was reverse-transcribed into complementary DNA (Sensifast cDNATM Synthesis kit, Bioline, Taunton, MA, USA). The mRNA levels of the target genes were quantified by RT-PCR using SensiFAST SYBER Hi-ROX Kit (Bioline, Taunton, MA, USA) with StepOnePlus Real-Time PCR System (Applied Biosystems, Foster City, CA, USA). Briefly, 5 µL of 1:5 diluted cDNA was added to the qPCR reaction containing 10 μL 2X SensiFAST Mix and 400 nM of each primer in a total volume of 20 μL.
Specific and validated primers for human glyceraldehyde-3-phosphate dehydrogenase (GADPH), intercellular adhesion marker-1 (ICAM-1), vascular cell adhesion marker-1 (VCAM-1), endothelial nitric oxide synthase (eNOS), interleukin 6 (IL-6), catalase, SOD (Super Oxide Dismutase), NADPH (Nicotinamide Adenine Dinucleotide Phosphate oxidase) and Bax (proapoptosis regulator) genes were used (Sigma-Aldrich Chemical Co., Saint Louis, MO, USA). […]
The relative quantification of gene expression was determined by the comparative fold change […] method. […]

[3] = system: EA.hy926 cells; experiment: Annexin V / propidium iodide apoptosis and necrosis by FACS; settings: preincubation with 300 µM peptide, then 300 µM H2O2; three independent experiments, mean ± SD; NS vs H2O2 alone
Protocol: as §2
ApoScreen Annexin V Apoptosis Kit-FITC (Southern Biotech, Birmingham, AL, USA) was used to detect the apoptosis rate. After the co-incubation of synthetic peptides and 300 µM H2O2, 0.4 × 10^6 cells were detached and washed in cold PBS, then resuspended in 100 µL Annexin V binding buffer and treated following the manufacturer’s protocol. Annexin V-fluorescein isothiocyanate (FITC) binding was assessed in FL1 channel simultaneously with propidium iodide (FL2 channel). This test discriminates among intact cells (FITC−/PI−), apoptotic cells (FITC+/PI−), and necrotic cells (FITC+/PI+). Assays were performed in triplicate (Table S1).

Row | Substance | ICAM-1 surface density (in words) [1] | ICAM-1 MFI [1] | VCAM-1 mRNA expression vs TNF-α stimulated cells [2] | Apoptosis (AnV+/PI-), % cells [3] [%] | Necrosis (AnV+/PI+), % cells [3] [%]
1 | AAATP [BP4] | reduced ICAM-1 surface density | 926.01 ± 152.46 | downregulated | 12.16 ± 1.86 | 18.42 ± 6.34
2 | KAAAATP [BP2] | reduced ICAM-1 surface density | 1064.42 ± 32.02 | downregulated | 14.47 ± 2.42 | 19.58 ± 0.18
